Assay results from US20240158446A1, “CYCLIC COMPOUND HAVING SELECTIVE INHIBITORY ACTION ON KRAS OVER HRAS AND NRAS” (CHUGAI SEIYAKU KABUSHIKI KAISHA, priority 2021, published 2024).
Where two headings read alike, the source gives them in different places.

Assays:
[1] = molecular target: GDP-bound KRAS wild-type protein (Homo sapiens, UniProt P01116); assay: Binding to KRAS by surface plasmon resonance (SPR), Single Cycle Kinetics
[2] = molecular target: GDP-bound NRAS wild-type protein (Homo sapiens, UniProt P01111); assay: Binding to NRAS by surface plasmon resonance (SPR), Single Cycle Kinetics; details: for NRAS/KRAS (ratio of KD value for NRAS to KD value for KRAS): GDP-bound NRAS wild-type protein vs GDP-bound KRAS wild-type protein; for NRAS/KRAS (ratio of KD value with respect to GDP-bound NRAS wild-type protein to KD value with respect to KRAS): SPR KD ratio NRAS/KRAS, class symbols
[3] = molecular target: GDP-bound HRAS wild-type protein (Homo sapiens, UniProt P01112); assay: Binding to HRAS by surface plasmon resonance (SPR), Single Cycle Kinetics; details: for HRAS/KRAS (ratio of KD value for HRAS to KD value for KRAS): GDP-bound HRAS wild-type protein vs GDP-bound KRAS wild-type protein; for HRAS/KRAS (ratio of KD value with respect to GDP-bound HRAS wild-type protein to KD value with respect to KRAS): SPR KD ratio HRAS/KRAS, class symbols
[4] = system: human lung cancer strain NCI-H441;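 note: cell proliferation inhibition after four days measured by CellTiter-Glo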
[5] = SPR, Single Cycle Kinetics, GDP-bound KRAS wild-type protein, read-out: KRAS KD
[6] = SPR Single Cycle Kinetics, GDP-bound KRAS wild-type protein, 1:1 binding model, read-out: KRAS KD
[7] = SPR, Single Cycle Kinetics, 1:1 binding model, GDP-bound KRAS wild-type protein, read-out: KRAS KD

GDP-bound KRAS wild-type protein, sequence (P01116 whole entry): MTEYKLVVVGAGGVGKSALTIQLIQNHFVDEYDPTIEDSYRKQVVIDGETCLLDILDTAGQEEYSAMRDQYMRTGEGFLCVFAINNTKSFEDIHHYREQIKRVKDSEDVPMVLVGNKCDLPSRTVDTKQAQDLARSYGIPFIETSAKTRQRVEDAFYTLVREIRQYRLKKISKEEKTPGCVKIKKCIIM
GDP-bound HRAS wild-type protein, sequence (P01112 whole entry): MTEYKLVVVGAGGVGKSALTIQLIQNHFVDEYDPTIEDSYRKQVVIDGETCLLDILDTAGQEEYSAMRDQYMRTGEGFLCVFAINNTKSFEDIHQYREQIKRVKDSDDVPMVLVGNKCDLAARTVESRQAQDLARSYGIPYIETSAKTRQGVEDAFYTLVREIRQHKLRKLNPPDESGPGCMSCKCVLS
GDP-bound NRAS wild-type protein, sequence (P01111 whole entry): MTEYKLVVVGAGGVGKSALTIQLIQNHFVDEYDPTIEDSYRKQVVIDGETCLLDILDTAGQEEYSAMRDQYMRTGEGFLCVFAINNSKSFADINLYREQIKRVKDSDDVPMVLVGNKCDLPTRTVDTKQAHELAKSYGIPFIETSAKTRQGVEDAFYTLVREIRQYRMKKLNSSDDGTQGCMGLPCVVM

CC[C@H](C)[C@@H]1NC(=O)[C@H](COC)N(C)C(=O)C[C@@H](C(=O)N(C)C)N(C)C(=O)[C@H](C2CCCC2)N(C)C(=O)C2(CC(C)(C)C2)NC(=O)[C@@H]2C[C@H](C)CN2C(=O)[C@H](CCc2ccc(C(F)(F)F)c(OC)c2)NC(=O)CN(C)C(=O)[C@H](Cc2ccc(C)cc2)N2CC/C=C\C[C@@H](C2=O)N(C)C(=O)CN(C)C1=O [PP2385]
Kd [1, 5]: 0.12 nM | NRAS/KRAS (ratio of KD value for NRAS to KD value for KRAS) ([2]; SPR): A (a compound having 10 or more and less than 20 is denoted as A) | HRAS/KRAS (ratio of KD value for HRAS to KD value for KRAS) ([3]; SPR): B (a compound having 3 or more and less than 10 is denoted as B) | IC50 [4]: 7.8 nM

CCC(CC)[C@H]1C(=O)N(C)[C@H](C(=O)N(C)C)CC(=O)N(C)[C@@H](COC)C(=O)N[C@@H]([C@@H](C)CC)C(=O)N(C)CC(=O)N(C)[C@H]2C/C=C\CCN(C2=O)[C@@H](Cc2ccc(C(F)(F)F)cc2)C(=O)N(C)CC(=O)N[C@@H](CCc2ccc(Cl)c(Cl)c2)C(=O)N2C[C@H](OC3CCCC3)C[C@H]2C(=O)NC2(CC(C)(C)C2)C(=O)N1C [PP2648]
Kd [1, 6]: 0.85 nM | NRAS/KRAS (ratio of KD value with respect to GDP-bound NRAS wild-type protein to KD value with respect to KRAS) [2]: A (a compound having 10 or more and less than 20 is denoted as A) | HRAS/KRAS (ratio of KD value with respect to GDP-bound HRAS wild-type protein to KD value with respect to KRAS) [3]: A (a compound having 10 or more and less than 20 is denoted as A) | IC50 [4]: 68.5 nM

CCCO[C@H](C)[C@@H]1NC(=O)[C@H](COCC)N(C)C(=O)C[C@@H](C(=O)N(C)CC)N(C)C(=O)[C@H](C2CCCC2)N(C)C(=O)C2(CC(C)(C)C2)NC(=O)[C@@H]2C[C@H](C)CN2C(=O)[C@H](CCc2cc(F)c(C(F)(F)F)c(F)c2)NC(=O)CN(C)C(=O)[C@H](Cc2ccc(C)cc2)N2CC/C=C\C[C@@H](C2=O)N(C)C(=O)CN(C)C1=O [PP2426]
Kd [1, 5]: 0.31 nM | NRAS/KRAS (ratio of KD value for NRAS to KD value for KRAS) ([2]; SPR): AA (a compound having 20 or more is denoted as AA) | HRAS/KRAS (ratio of KD value for HRAS to KD value for KRAS) ([3]; SPR): A (a compound having 10 or more and less than 20 is denoted as A) | IC50 [4]: 48 nM

CCC[C@H]1C(=O)N[C@@H]([C@@H](C)CC)C(=O)N(C2CC2)CC(=O)N(C)[C@H]2C/C=C\CCN(C2=O)[C@@H](Cc2ccc(C(F)F)cc2)C(=O)N(C)CC(=O)N[C@@H](CCc2cc(F)c(C(F)(F)F)c(F)c2)C(=O)N2C[C@H](OC(C)C)C[C@H]2C(=O)NC2(CC(C)(C)C2)C(=O)N(C)[C@@H](C(CC)CC)C(=O)N(C)[C@H](C(=O)N(C)C)CC(=O)N1C [PP2529]
Kd [1, 6]: 0.77 nM | NRAS/KRAS (ratio of KD value with respect to GDP-bound NRAS wild-type protein to KD value with respect to KRAS) [2]: AA (a compound having 20 or more is denoted as AA) | HRAS/KRAS (ratio of KD value with respect to GDP-bound HRAS wild-type protein to KD value with respect to KRAS) [3]: A (a compound having 10 or more and less than 20 is denoted as A) | IC50 [4]: 64 nM

CCCOC[C@H]1C(=O)N[C@@H]([C@@H](C)CC)C(=O)N(C)CC(=O)N(C)[C@H]2C/C=C\CCN(C2=O)[C@@H](Cc2ccc(C(F)(F)F)cc2)C(=O)N(C)CC(=O)N[C@@H](CCc2cc(F)c(C(F)(F)F)c(F)c2)C(=O)N2C[C@H](OCC)C[C@H]2C(=O)NC2(CCC2)C(=O)N(C)[C@@H](C2CCCC2)C(=O)N(C)[C@H](C(=O)N(C)C)CC(=O)N1C [PP1395, (2S,8S,12R,14S,20S,23S,27S,30S,36S,38Z)-20-cyclopentyl-8-[2-[3,5-difluoro-4-(trifluoromethyl)phenyl]ethyl]-12-ethoxy-N,N,4,19,22,26,32,35-octamethyl-30-[(1S)-1-methylpropyl]-3,6,9,15,18,21,25,28,31,34,42-undecaoxo-27-(propoxymethyl)-2-[[4-(trifluoromethyl)phenyl]methyl]spiro[1,4,7,10,16,19,22,26,29,32,35-undecazatricyclo[34.5.1.0^10,14]dotetracont-38-ene-17,1′-cyclobutane]-23-carboxamide]
Kd [1, 7]: 0.063 nM | NRAS/KRAS (ratio of KD value for NRAS to KD value for KRAS) ([2]; SPR, KD ratio class): A (a compound having 10 or more and less than 20 is denoted as A) | HRAS/KRAS (ratio of KD value for HRAS to KD value for KRAS) ([3]; SPR, KD ratio class): B (a compound having 3 or more and less than 10 is denoted as B) | IC50 [4]: 3.8 nM

CCO[C@@H]1C[C@H]2C(=O)NC3(CCCC3)C(=O)N(C)[C@@H](C3CCCC3)C(=O)N(C)[C@H](C(=O)N(C)C)CC(=O)N(C)[C@@H](CC(C)C)C(=O)N[C@@H]([C@@H](C)CC)C(=O)N(C)CC(=O)N(C)[C@H]3C/C=C\CCN(C3=O)[C@@H](CC3CCCCC3)C(=O)N(C)CC(=O)N[C@@H](CCc3cc(F)c(C(F)(F)F)c(F)c3)C(=O)N2C1 [PP1473]
Kd [1, 7]: 0.19 nM | NRAS/KRAS (ratio of KD value for NRAS to KD value for KRAS) ([2]; SPR, KD ratio class): A (a compound having 10 or more and less than 20 is denoted as A) | HRAS/KRAS (ratio of KD value for HRAS to KD value for KRAS) ([3]; SPR, KD ratio class): A (a compound having 10 or more and less than 20 is denoted as A) | IC50 [4]: 36.6 nM

CCOC[C@H]1C(=O)N[C@@H]([C@@H](C)CC)C(=O)N(C)CC(=O)N(C)[C@H]2C/C=C\CCN(C2=O)[C@@H](Cc2ccc(C(F)(F)F)cc2)C(=O)N(C)CC(=O)N[C@@H](CCc2cc(F)c(C(F)(F)F)c(F)c2)C(=O)N2C[C@H](OCC)C[C@H]2C(=O)NC2(CCC2)C(=O)N(C)[C@@H](C2CCCC2)C(=O)N(C)[C@H](C(=O)N(C)C)CC(=O)N1C [PP1266, (2S,8S,12R,14S,20S,23S,27S,30S,36S,38Z)-20-cyclopentyl-8-[2-[3,5-difluoro-4-(trifluoromethyl)phenyl]ethyl]-12-ethoxy-27-(ethoxymethyl)-N,N,4,19,22,26,32,35-octamethyl-30-[(1S)-1-methylpropyl]-3,6,9,15,18,21,25,28,31,34,42-undecaoxo-2-[[4-(trifluoromethyl)phenyl]methyl]spiro[1,4,7,10,16,19,22,26,29,32,35-undecazatricyclo[34.5.1.0^10,14]dotetracont-38-ene-17,1′-cyclobutane]-23-carboxamide]
Kd [1, 7]: 0.045 nM | NRAS/KRAS (ratio of KD value for NRAS to KD value for KRAS) ([2]; SPR, KD ratio class): A (a compound having 10 or more and less than 20 is denoted as A) | HRAS/KRAS (ratio of KD value for HRAS to KD value for KRAS) ([3]; SPR, KD ratio class): A (a compound having 10 or more and less than 20 is denoted as A) | IC50 [4]: 12.2 nM

CCOC[C@H]1C(=O)N[C@@H]([C@@H](C)CC)C(=O)N(C)CC(=O)N(C)[C@H]2C/C=C\CCN(C2=O)[C@@H](Cc2ccc(C)cc2)C(=O)N(C)CC(=O)N[C@@H](CCc2cc(F)c(C(F)(F)F)c(F)c2)C(=O)N2C[C@H](OCC)C[C@H]2C(=O)NC2(CC(C)(C)C2)C(=O)N(C)[C@@H](C2CCCC2)C(=O)N(C)[C@H](C(=O)N(C)CC)CC(=O)N1C [PP2404]
Kd [1, 5]: 0.09 nM | NRAS/KRAS (ratio of KD value for NRAS to KD value for KRAS) ([2]; SPR): A (a compound having 10 or more and less than 20 is denoted as A) | HRAS/KRAS (ratio of KD value for HRAS to KD value for KRAS) ([3]; SPR): A (a compound having 10 or more and less than 20 is denoted as A) | IC50 [4]: 4.1 nM

CCC[C@H]1C(=O)N[C@@H]([C@@H](C)CC)C(=O)N(C)CC(=O)N(C)[C@H]2C/C=C\CCN(C2=O)[C@@H](Cc2ccc(C)cc2)C(=O)N(C)CC(=O)N[C@@H](CCc2cc(F)c(C(F)(F)F)c(F)c2)C(=O)N2C[C@H](OCC)C[C@H]2C(=O)N(C)C2(CCC2)C(=O)N(C)[C@@H](C2CCCC2)C(=O)N(C)[C@H](C(=O)N2CCCC2)CC(=O)N1C [PP3121, (2S,8S,12R,14S,20S,23S,27S,30S,36S,38Z)-20-cyclopentyl-8-[2-[3,5-difluoro-4-(trifluoromethyl)phenyl]ethyl]-12-ethoxy-4,16,19,22,26,32,35-heptamethyl-30-[(1S)-1-methylpropyl]-27-propyl-2-(p-tolylmethyl)-23-(pyrrolidine-1-carbonyl)spiro[1,4,7,10,16,19,22,26,29,32,35-undecazatricyclo[34.5.1.0^10,14]dotetracont-38-ene-17,1′-cyclobutane]-3,6,9,15,18,21,25,28,31,34,42-undecone]
Kd ([1]; SPR, Single Cycle Kinetics, 1:1 binding model, read-out: KD value with respect to GDP-bound KRAS wild-type protein): 0.043 nM | Kd [1, 5]: 0.043 nM | NRAS/KRAS (ratio of KD value for NRAS to KD value for KRAS) ([2]; SPR): A (a compound having 10 or more and less than 20 is denoted as A) | ratio of the KD value with respect to GDP-bound NRAS wild-type protein to the KD value with respect to KRAS ([2]; SPR, KD(NRAS)/KD(KRAS)): A (a compound having 10 or more and less than 20 is denoted as A) | HRAS/KRAS (ratio of KD value for HRAS to KD value for KRAS) ([3]; SPR): A (a compound having 10 or more and less than 20 is denoted as A) | ratio of the KD value with respect to GDP-bound HRAS wild-type protein to the KD value with respect to KRAS ([3]; SPR, KD(HRAS)/KD(KRAS)): A (a compound having 10 or more and less than 20 is denoted as A) | IC50 ([4]; read-out: NCI-H441 cell proliferation inhibitory activity, 50% proliferation inhibitory concentration (IC50 value), NCI-H441, four days, CellTiter-Glo): 1.5 nM

CCO[C@@H]1C[C@H]2C(=O)NC(C)(C)C(=O)N(C)[C@@H](C3CCCC3)C(=O)N(C)[C@H](C(=O)N(C)C)CC(=O)N(C)[C@@H](CC)C(=O)N[C@@H]([C@@H](C)CC)C(=O)N(C)CC(=O)N(C)[C@H]3C/C=C\CCN(C3=O)[C@@H](Cc3ccc(C(F)(F)F)cc3)C(=O)N(C)CC(=O)N[C@@H](CCc3cc(F)c(C(F)(F)F)c(F)c3)C(=O)N2C1 [PP1280]
Kd [1, 7]: 0.15 nM | NRAS/KRAS (ratio of KD value for NRAS to KD value for KRAS) ([2]; SPR, KD ratio class): A (a compound having 10 or more and less than 20 is denoted as A) | HRAS/KRAS (ratio of KD value for HRAS to KD value for KRAS) ([3]; SPR, KD ratio class): A (a compound having 10 or more and less than 20 is denoted as A) | IC50 [4]: 34.4 nM
